ChEMBL document CHEMBL3108773, “Antihyperglycemic glucosylated coumaroyltyramine derivatives from Teucrium viscidum” (J Nat Prod, 2014)

Key:
HepG2 [1] = test: Antihyperglycemic activity in human HepG2 cells assessed as stimulation of glucose consumption at 2 uM after 36 hrs by glucose oxidase assay in presence of high glucose condition relative to control; format: functional
[2] = Antihyperglycemic activity in mouse 3T3L1 cells assessed as stimulation of glucose consumption at 2 uM after 36 hrs by glucose oxidase assay in presence of high glucose condition relative to control; format: functional, 3T3-L1
HepG2 [3] = test: Cytotoxicity against human HepG2 cells assessed as cell viability up to 30 uM by MTT assay; format: cell-based
[4] = Cytotoxicity against mouse 3T3L1 cells assessed as cell viability up to 30 uM by MTT assay; format: cell-based; details: 3t3-l1

Question: For `COc1ccc(/C=C/C(=O)NCCc2ccc(O[C@@H]3O[C@@H](C)[C@H](O)[C@@H](O[C@@H]4O[C@H](CO)[C@@H](O)[C@H](O)[C@H]4O)[C@H]3O[C@@H]3O[C@H](CO)[C@@H](O)[C@H](O)[C@H]3O)cc2)cc1`, which “fold change (FC)” value (HepG2 [1]) is on record?
Answer: Its value is 2.2.

Question: What about the “fold change (FC)” value [2] of the same molecule?
Answer: The value was 2.5.

Question: And the Activity (HepG2 [3])?
Answer: The Activity was “Non-toxic”.

Question: What about the Activity [4] of the same molecule?
Answer: The Activity was “Non-toxic”.

Question: With `COc1ccc(/C=C/C(=O)NCCc2ccc(O[C@@H]3O[C@@H](C)[C@H](OC(C)=O)[C@@H](O[C@@H]4O[C@H](CO)[C@@H](O)[C@H](O)[C@H]4O)[C@H]3O[C@@H]3O[C@H](CO)[C@@H](O)[C@H](O)[C@H]3O)cc2)cc1` as the molecule, how does the “fold change (FC)” value (HepG2 [1]) read?
Answer: The value was 2.1.

Question: And the “fold change (FC)” value [2]?
Answer: Its value is 2.1.

Question: And the Activity (HepG2 [3])?
Answer: Its Activity is “Non-toxic”.

Question: And the Activity [4]?
Answer: Its Activity is “Non-toxic”.

Question: What does the source list for `COc1ccc(/C=C/C(=O)NCCc2ccc(O[C@@H]3O[C@@H](C)[C@H](OC(C)=O)[C@@H](O[C@@H]4O[C@H](CO)[C@@H](O)[C@H](O)[C@H]4O)[C@H]3O[C@@H]3O[C@H](COC(C)=O)[C@@H](O)[C@H](O)[C@H]3O)cc2)cc1`?
Answer: fold change (FC) (HepG2 [1]): 1.7; fold change (FC) [2]: 1.6; Activity (HepG2 [3]): Non-toxic; Activity [4]: Non-toxic

Question: Which “fold change (FC)” value (HepG2 [1]) does the source give for `COc1ccc(/C=C/C(=O)NCCc2ccc(O[C@@H]3O[C@@H](C)[C@H](OC(C)=O)[C@@H](O[C@@H]4O[C@H](COC(C)=O)[C@@H](O)[C@H](O)[C@H]4O)[C@H]3O[C@@H]3O[C@H](COC(C)=O)[C@@H](O)[C@H](O)[C@H]3O)cc2)cc1` here?
Answer: Its value is 1.7.

Question: What about the “fold change (FC)” value [2] of the same molecule?
Answer: The value was 1.6.

Question: And the Activity (HepG2 [3])?
Answer: The Activity was “Non-toxic”.

Question: And the Activity [4]?
Answer: Its Activity is “Non-toxic”.

Question: For `COc1ccc(/C=C\C(=O)NCCc2ccc(O[C@@H]3O[C@@H](C)[C@H](O)[C@@H](O[C@@H]4O[C@H](CO)[C@@H](O)[C@H](O)[C@H]4O)[C@H]3O[C@@H]3O[C@H](CO)[C@@H](O)[C@H](O)[C@H]3O)cc2)cc1`, which “fold change (FC)” value (HepG2 [1]) is on record?
Answer: Its value is 1.7.

Question: And the “fold change (FC)” value [2]?
Answer: Its value is 1.6.

Question: And the Activity (HepG2 [3])?
Answer: Its Activity is “Non-toxic”.

Question: What about the Activity [4] of the same molecule?
Answer: Its Activity is “Non-toxic”.

Question: With `COc1ccc(/C=C\C(=O)NCCc2ccc(O[C@@H]3O[C@@H](C)[C@H](OC(C)=O)[C@@H](O[C@@H]4O[C@H](CO)[C@@H](O)[C@H](O)[C@H]4O)[C@H]3O[C@@H]3O[C@H](CO)[C@@H](O)[C@H](O)[C@H]3O)cc2)cc1` as the molecule, how does the “fold change (FC)” value (HepG2 [1]) read?
Answer: The value was 2.2.

Question: And the “fold change (FC)” value [2]?
Answer: Its value is 2.3.

Question: What about the Activity (HepG2 [3]) of the same molecule?
Answer: The Activity was “Non-toxic”.

Question: And the Activity [4]?
Answer: The Activity was “Non-toxic”.

Question: Which “fold change (FC)” value (HepG2 [1]) does the source give for `COc1ccc(/C=C\C(=O)NCCc2ccc(O[C@@H]3O[C@@H](C)[C@H](OC(C)=O)[C@@H](O[C@@H]4O[C@H](CO)[C@@H](O)[C@H](O)[C@H]4O)[C@H]3O[C@@H]3O[C@H](COC(C)=O)[C@@H](O)[C@H](O)[C@H]3O)cc2)cc1` here?
Answer: The value was 1.7.

Question: What about the “fold change (FC)” value [2] of the same molecule?
Answer: Its value is 1.6.

Question: What about the Activity (HepG2 [3]) of the same molecule?
Answer: The Activity was “Non-toxic”.

Question: What about the Activity [4] of the same molecule?
Answer: The Activity was “Non-toxic”.

Question: For `COc1ccc(/C=C\C(=O)NCCc2ccc(O[C@@H]3O[C@@H](C)[C@H](OC(C)=O)[C@@H](O[C@@H]4O[C@H](COC(C)=O)[C@@H](O)[C@H](O)[C@H]4O)[C@H]3O[C@@H]3O[C@H](COC(C)=O)[C@@H](O)[C@H](O)[C@H]3O)cc2)cc1`, which “fold change (FC)” value (HepG2 [1]) is on record?
Answer: Its value is 1.7.

Question: What about the “fold change (FC)” value [2] of the same molecule?
Answer: The value was 1.6.

Question: What about the Activity (HepG2 [3]) of the same molecule?
Answer: Its Activity is “Non-toxic”.

Question: And the Activity [4]?
Answer: The Activity was “Non-toxic”.
